We go through 20 compounds from PubChem BioAssay AID202 (DTP/NCI, 2004).

The structures appear in SMILES notation. Values joined by “and” are separate entries in the source; they are usually repeats but may differ in a detail not shown here. Identical values can stand only once.

For this test, the system named is HT29 xenograft, nude mice, s.c., tumor weight T/C%. The test can be described thus: NCI In Vivo Anticancer Drug Screen. Data for tumor model HT29;CX-1 Human Adenocarcinoma (MER+) (subcutaneous) in NU/NU Swiss (nude) mice. To be noted: endpoint: optimum tumor weight change, higher = larger tumour. Here is the method: The antitumor activity of compounds was measured in mice bearing transplantable tumors. Survival or tumor size were measured and the results are expressed as the measurement made in the treated group (T) divided by the measurement made in the vehicle treated control group (C). The tumor model used in this assay is HT29;CX-1 Human Adenocarcinoma (MER+) (subcutaneous) in NU/NU Swiss (nude) mice

The mark [1] stands for this setting: dose: 3.75 mg/kg/injection, schedule: Q04DX003 (ip), vehicle: saline.
[2] abbreviates: dose: 100.0 mg/kg/injection, schedule: Q04DX003 (ip), vehicle: saline with Tween-80.
Setting [3] is: dose: 200.0 mg/kg/injection, schedule: Q04DX003 (ip), vehicle: saline with Tween-80.
[4] abbreviates: dose: 100.0 mg/kg/injection, schedule: Q04DX003 (ip), vehicle: saline.
Where [5] appears, read: dose: 200.0 mg/kg/injection, schedule: Q04DX003 (ip), vehicle: saline.
Where [6] appears, read: dose: 12.5 mg/kg/injection, schedule: Q04DX003 (ip), vehicle: saline.
Setting [7] is: dose: 25.0 mg/kg/injection, schedule: Q04DX003 (ip), vehicle: saline.
Setting [8] is: dose: 100.0 mg/kg/injection, schedule: Q04DX003 (ip), vehicle: suspension in saline.
Where [9] appears, read: dose: 200.0 mg/kg/injection, schedule: Q04DX003 (ip), vehicle: suspension in saline.
The mark [10] stands for this setting: dose: 50.0 mg/kg/injection, schedule: Q04DX003 (ip), vehicle: saline.

Turning to `Cc1c(N)nc(C(CC(N)=O)NCC(N)C(N)=O)nc1C(=O)NC(C(=O)NC(C)C(O)C(C)C(=O)NC(C(=O)NCCc1nc(-c2nc(C(=O)NCCCNC(C)c3ccccc3)cs2)cs1)C(C)O)C(OC1OC(CO)C(O)C(O)C1OC1OC(CO)C(O)C(OC(N)=O)C1O)c1cnc[nH]1` (centres undefined), under setting [1], the T/C was 70 % of control.
`C=CC(=O)N1CN(C(=O)C=C)CN(C(=O)C=C)C1`: the T/C is, setting by setting: (dose: 3.13 mg/kg/injection, schedule: Q01DX003 (ip), vehicle: saline with Tween-80) 62 % of control; (dose: 6.25 mg/kg/injection, schedule: Q01DX003 (ip), vehicle: saline with Tween-80) 93 % of control.
Turning to `O=C1N(Cl)C(=O)C(c2ccc(Cl)cc2)(c2ccc(Cl)cc2)N1Cl`, the T/C reads like this: under setting [2], 103 % of control; under setting [3], 108 % of control.
For `CN(N=O)C(=O)N[C@@H](C=O)[C@@H](O)[C@H](O)[C@H](O)CO`, the T/C was 82 % of control under setting [4] and 98 % of control under setting [5].
For `Cc1c(N)nc([C@H](CC(N)=O)NC[C@H](N)C(N)=O)nc1C(=O)N[C@H](C(=O)N[C@H](C)[C@@H](O)[C@H](C)C(=O)N[C@H](C(=O)NCCc1nc(-c2nc(C(=O)NCCC[S+](C)C)cs2)cs1)[C@@H](C)O)C(OC1OC(CO)C(O)C(O)C1OC1OC(CO)C(O)C(OC(N)=O)C1O)c1cnc[nH]1` (some centres undefined), the T/C was 71 % of control under setting [1]; 64 % of control (dose: 4.0 mg/kg/injection, schedule: Q04DX003 (ip), vehicle: saline); 50 % of control and 70 % of control (dose: 7.5 mg/kg/injection, schedule: Q04DX003 (ip), vehicle: saline); 37 % of control (dose: 7.5 mg/kg/injection, schedule: Q04DX004 (ip), vehicle: saline); 49 % of control (dose: 8.0 mg/kg/injection, schedule: Q04DX003 (ip), vehicle: saline); 26 % of control (dose: 15.0 mg/kg/injection, schedule: Q04DX004 (ip), vehicle: saline). Moreover, the T/C is, setting by setting: (dose: 16.0 mg/kg/injection, schedule: Q04DX003 (ip), vehicle: saline) 28 % of control and 33 % of control; (dose: 32.0 mg/kg/injection, schedule: Q04DX003 (ip), vehicle: saline) 11 % of control.
Consider `CN(C)N=Nc1ccccc1`, for which the T/C (dose: 25.0 mg/kg/injection, schedule: Q04DX003 (ip), vehicle: Klucel (hydroxypropylcellulose) (HPC)) is 64 % of control and the T/C (dose: 50.0 mg/kg/injection, schedule: Q04DX003 (ip), vehicle: Klucel (hydroxypropylcellulose) (HPC)) was 83 % of control.
For the compound `COc1cccc2c1C(=O)c1c(O)c3c(c(O)c1C2=O)C[C@@](O)(/C(C)=N\O)C[C@@H]3OC1CC(N)C(O)C(C)O1` (some centres undefined), the T/C by setting is: (dose: 6.25 mg/kg/injection, schedule: Q04DX003 (ip), vehicle: saline) 68 % of control; under setting [6], 63 % of control; under setting [7], 56 % of control.
As for `COC1C(O)CC(OC2CC(OC3CC(O[C@@H]4C(=O)c5c(cc6cc(OC7CC(OC8CC(O)C(O)C(C)O8)C(O)C(C)O7)c(C)c(O)c6c5O)C[C@H]4[C@H](OC)C(=O)[C@@H](O)[C@@H](C)O)OC(C)C3O)OC(C)C2O)OC1C` (some centres undefined), the T/C (dose: 1.5 mg/kg/injection, schedule: Q04DX003 (ip), vehicle: saline) was 52 % of control.
As for `CC(CN1CC(=O)NC(=O)C1)N1CC(=O)NC(=O)C1` (centres undefined), the T/C was 73 % of control (dose: 50.0 mg/kg/injection, schedule: Q04DX003 (ip), vehicle: suspension in saline); 50 % of control under setting [8]; 57 % of control under setting [9].
As to `CN1N=C(N)c2cn(C3OC(COP(=O)(O)O)C(O)C3O)c3ncnc1c23` (centres undefined), the T/C (dose: 50.0 mg/kg/injection, schedule: Q04DX003 (ip), vehicle: water) is 121 % of control.
Turning to `O=c1[nH]cnc2n[nH]nc12`, the T/C was 67 % of control (dose: 100.0 mg/kg/injection, schedule: Q04DX003 (ip), vehicle: Klucel (hydroxypropylcellulose) (HPC)); 67 % of control (dose: 200.0 mg/kg/injection, schedule: Q04DX003 (ip), vehicle: Klucel (hydroxypropylcellulose) (HPC)); 31 % of control (dose: 400.0 mg/kg/injection, schedule: Q04DX003 (ip), vehicle: Klucel (hydroxypropylcellulose) (HPC)).
In the case of `N=c1ccn2c(n1)OC1C(O)C(CO)OC12` (centres undefined), the T/C is 70 % of control under setting [10]; 49 % of control under setting [4]; 71 % of control and 77 % of control under setting [5]; 40 % of control (dose: 800.0 mg/kg/injection, schedule: Q04DX003 (ip), vehicle: saline).
Regarding `O=C(NC1CCCCC1)OCc1c(COC(=O)NC2CCCCC2)c(-c2ccc(Cl)c(Cl)c2)n2c1CCC2`, the T/C reads like this: under setting [8], 96 % of control; under setting [9], 90 % of control; (dose: 400.0 mg/kg/injection, schedule: Q04DX003 (ip), vehicle: suspension in saline) 92 % of control; (dose: 800.0 mg/kg/injection, schedule: Q04DX003 (ip), vehicle: suspension in saline) 65 % of control.
As to `N/C(=N\O)c1cn(C2OC(CO)C(O)C2O)c2ncnc(N)c12` (centres undefined), the T/C was 91 % of control (dose: 5.0 mg/kg/injection, schedule: Q04DX003 (ip), vehicle: Klucel (hydroxypropylcellulose) (HPC)); 63 % of control (dose: 10.0 mg/kg/injection, schedule: Q04DX003 (ip), vehicle: Klucel (hydroxypropylcellulose) (HPC)); 47 % of control (dose: 20.0 mg/kg/injection, schedule: Q04DX003 (ip), vehicle: Klucel (hydroxypropylcellulose) (HPC)).
As for `C=C(C)[C@H]1Cc2c(ccc3c2O[C@@H]2COc4cc(OC)c(OC)cc4[C@@H]2C3=O)O1`, the T/C runs as follows: (dose: 3.0 mg/kg/injection, schedule: Q04DX003 (ip), vehicle: suspension in saline) 90 % of control; (dose: 6.0 mg/kg/injection, schedule: Q04DX003 (ip), vehicle: suspension in saline) 77 % of control; (dose: 12.0 mg/kg/injection, schedule: Q04DX003 (ip), vehicle: suspension in saline) 91 % of control; under setting [6], 70 % of control; under setting [7], 102 % of control; under setting [10], 50 % of control.
For the compound `O=C[C@@H](CO)O[C@H](C=O)n1cnc2c(=O)[nH]cnc21`, the T/C runs as follows: under setting [4], 57 % of control; under setting [5], 85 % of control; (dose: 400.0 mg/kg/injection, schedule: Q04DX003 (ip), vehicle: saline) 48 % of control.
Consider `CC(C)CCCCCCCCCCCCC(=O)NCC(=O)NC1C(C)OC(Nc2ncnc3nc[nH]c23)C(O)C1O` (centres undefined), for which the T/C (dose: 3.13 mg/kg/injection, schedule: Q04DX003 (ip), vehicle: distilled water + Tween-80) was 88 % of control; the T/C (dose: 3.13 mg/kg/injection, schedule: Q04DX003 (ip), vehicle: saline with Tween-80) is 58 % of control; the T/C (dose: 6.25 mg/kg/injection, schedule: Q04DX003 (ip), vehicle: distilled water + Tween-80) was 56 % of control and 66 % of control; the T/C (dose: 6.25 mg/kg/injection, schedule: Q04DX003 (ip), vehicle: saline with Tween-80) was 52 % of control; the T/C (dose: 12.5 mg/kg/injection, schedule: Q04DX003 (ip), vehicle: distilled water + Tween-80) was 55 % of control; the T/C (dose: 12.5 mg/kg/injection, schedule: Q04DX003 (ip), vehicle: saline with Tween-80) was 40 % of control. Further, the T/C (dose: 25.0 mg/kg/injection, schedule: Q04DX003 (ip), vehicle: distilled water + Tween-80) was 73 % of control.
For the compound `Cc1c(CNc2ccc(C(=O)NC(CC(=O)O)C(=O)O)cc2)ccc2nc(N)nc(N)c12` (centres undefined), the T/C is 109 % of control (dose: 3.0 mg/kg/injection, schedule: Q04DX003 (ip), vehicle: saline with Tween-80); 153 % of control (dose: 6.0 mg/kg/injection, schedule: Q04DX003 (ip), vehicle: saline with Tween-80); 92 % of control (dose: 12.0 mg/kg/injection, schedule: Q04DX003 (ip), vehicle: saline with Tween-80).
Turning to `COc1cc([C@@H]2c3cc4c(c(O)c3C[C@H]3COC(=O)[C@@H]32)OCO4)cc(OC)c1OC`, the T/C is 83 % of control (dose: 2.5 mg/kg/injection, schedule: Q04DX003 (ip), vehicle: saline); 114 % of control (dose: 5.0 mg/kg/injection, schedule: Q04DX003 (ip), vehicle: saline); 52 % of control (dose: 10.0 mg/kg/injection, schedule: Q04DX003 (ip), vehicle: saline).
Take `CC(=O)OCC1OC(n2cc(CBr)nn2)C(OC(C)=O)C(OC(C)=O)C1OC(C)=O` (centres undefined): the T/C (dose: 50.0 mg/kg/injection, schedule: Q04DX003 (ip), vehicle: saline with Tween-80) is 78 % of control; the T/C under setting [2] was 92 % of control; the T/C under setting [3] is 69 % of control.
